Measured values from article PMC4829233, “Identification of Novel Chemical Scaffolds Inhibiting Trypanothione Synthetase from Pathogenic Trypanosomatids” (PLoS Neglected Tropical Diseases, 2016).
Values joined by “and” are separate entries in the source; they are usually repeats but may differ in a detail not shown here. Equal entries are not always repeated. Where two headings read alike, the source gives them in different places.

Key:
[1] = molecular target: TcTryS (Trypanosoma cruzi trypanothione synthetase) (Trypanosoma cruzi, UniProt Q9GT49); assay: biochemical; format: biochemical; details: read-out: % TcTryS inhibition ± 2σn-1
TcTryS (Trypanosoma cruzi trypanothione synthetase), sequence (Q9GT49 whole entry): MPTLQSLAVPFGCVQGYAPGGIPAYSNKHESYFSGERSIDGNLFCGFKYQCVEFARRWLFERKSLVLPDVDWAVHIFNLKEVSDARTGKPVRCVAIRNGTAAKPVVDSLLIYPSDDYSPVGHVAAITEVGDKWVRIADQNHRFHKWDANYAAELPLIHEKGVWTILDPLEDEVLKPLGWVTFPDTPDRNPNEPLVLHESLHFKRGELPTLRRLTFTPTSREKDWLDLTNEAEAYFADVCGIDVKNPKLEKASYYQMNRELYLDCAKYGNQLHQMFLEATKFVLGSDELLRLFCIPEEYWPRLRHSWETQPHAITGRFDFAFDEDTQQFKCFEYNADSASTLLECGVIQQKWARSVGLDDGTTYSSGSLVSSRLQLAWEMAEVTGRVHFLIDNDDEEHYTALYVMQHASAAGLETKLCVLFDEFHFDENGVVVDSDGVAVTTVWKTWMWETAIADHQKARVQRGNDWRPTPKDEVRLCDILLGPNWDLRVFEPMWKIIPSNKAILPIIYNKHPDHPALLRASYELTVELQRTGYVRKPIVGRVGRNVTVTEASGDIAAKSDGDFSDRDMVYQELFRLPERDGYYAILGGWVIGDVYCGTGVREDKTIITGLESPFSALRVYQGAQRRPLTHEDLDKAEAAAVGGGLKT

[2] = system: Leishmania infantum promastigotes; assay: Proliferation/cytotoxicity assay, L. infantum promastigotes; format: cell-based; details: 24 h, promastigotes
Description: All assays were performed in duplicates or triplicates.
Leishmania infantum promastigotes were cultured at 28 °C in RPMI 1640 Glutamax supplemented with 10% (v/v) FCS, 10 U ml^-1 penicillin, 10 µg ml^-1 streptomycin and 25 mM HEPES sodium salt pH 7.4. […] Twenty four hours later the number of living parasites was estimated by cell counting under the light microscope using a Neubauer chamber and viability calculated as percentage relative to cultures incubated with the vehicle alone.

[3] = system: bloodstream Trypanosoma brucei brucei; assay: Proliferation/cytotoxicity assay, infective T. b. brucei; format: cell-based; details: 24 h, read-out: T. b. Brucei EC50
[4] = system: L. infantum promastigotes; assay: Analysis of intracellular thiols; format: cell-based, Leishmania infantum
Description: The method is a modified version of that described in [62]. Briefly, L. infantum promastigotes or bloodstream T. b. brucei (WT and RNAi-TryS cell lines) treated or not with compounds (MOL2008 or EAP1-47, respectively) for 24 h were harvested by centrifugation (2000g, 10 min at 4°C), washed twice with PBS and resuspended at a density of 10^8 cells/0.1 mL of 40 mM Hepes pH 8.0 and 2 mM mono-bromobimane in methanol. After incubation at 70°C for 3 minutes, the samples were cooled on ice, then added of 100 μL 4 M methanesulfonic acid (adjusted to pH 1.5 with LiOH) and incubated overnight at 4°C. The supernatant containing the derivatized low molecular mass thiols was centrifuged at 13000g 40 min at 0°C.

TryS from C. fasciculata = system: TryS from C. fasciculata; parameters: method as in earlier work; details: ref [10]; cited from earlier work
[5] = molecular target: TbTryS (Trypanosoma brucei trypanothione synthetase) (Trypanosoma brucei brucei, UniProt Q8IEX1); assay: biochemical
TbTryS (Trypanosoma brucei trypanothione synthetase), sequence (Q8IEX1 1-627): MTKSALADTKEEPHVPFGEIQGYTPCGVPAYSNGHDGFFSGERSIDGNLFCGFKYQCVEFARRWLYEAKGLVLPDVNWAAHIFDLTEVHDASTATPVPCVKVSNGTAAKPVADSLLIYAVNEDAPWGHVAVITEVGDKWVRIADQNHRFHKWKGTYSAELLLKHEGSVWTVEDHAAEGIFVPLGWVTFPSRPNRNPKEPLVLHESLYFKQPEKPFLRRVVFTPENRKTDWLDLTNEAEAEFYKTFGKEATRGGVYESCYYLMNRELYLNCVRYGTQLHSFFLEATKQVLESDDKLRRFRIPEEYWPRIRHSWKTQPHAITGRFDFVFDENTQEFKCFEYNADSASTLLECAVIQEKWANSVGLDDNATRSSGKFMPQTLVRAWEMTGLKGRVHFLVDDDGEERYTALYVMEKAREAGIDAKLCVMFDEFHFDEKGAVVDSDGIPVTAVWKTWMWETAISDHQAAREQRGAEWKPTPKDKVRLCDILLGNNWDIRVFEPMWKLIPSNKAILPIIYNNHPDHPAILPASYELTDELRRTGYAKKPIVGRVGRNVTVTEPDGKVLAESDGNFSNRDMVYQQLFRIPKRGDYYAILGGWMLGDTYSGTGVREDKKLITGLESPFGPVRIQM

[6] = molecular target: LiTryS (Leishmania infantum trypanothione synthetase) (Leishmania infantum, UniProt A4I2Z3); assay: biochemical; format: biochemical
LiTryS (Leishmania infantum trypanothione synthetase), sequence (A4I2Z3 1-652): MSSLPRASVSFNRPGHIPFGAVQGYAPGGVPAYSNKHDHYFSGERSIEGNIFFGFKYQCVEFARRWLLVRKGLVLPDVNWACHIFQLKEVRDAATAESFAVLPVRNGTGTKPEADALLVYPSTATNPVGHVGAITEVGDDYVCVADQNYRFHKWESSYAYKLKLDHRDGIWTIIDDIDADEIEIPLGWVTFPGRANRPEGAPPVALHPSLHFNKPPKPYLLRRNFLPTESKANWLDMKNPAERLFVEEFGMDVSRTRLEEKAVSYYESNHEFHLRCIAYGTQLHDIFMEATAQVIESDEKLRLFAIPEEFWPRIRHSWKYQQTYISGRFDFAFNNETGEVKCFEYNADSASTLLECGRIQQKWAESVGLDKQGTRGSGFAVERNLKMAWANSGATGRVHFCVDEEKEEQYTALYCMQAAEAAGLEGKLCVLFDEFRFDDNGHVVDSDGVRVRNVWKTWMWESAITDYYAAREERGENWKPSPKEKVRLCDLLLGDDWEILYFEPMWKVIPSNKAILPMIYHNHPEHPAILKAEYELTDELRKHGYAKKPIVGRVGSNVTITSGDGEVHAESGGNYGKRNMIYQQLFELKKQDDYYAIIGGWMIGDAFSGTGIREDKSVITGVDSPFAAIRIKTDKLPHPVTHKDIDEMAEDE

[7] = system: Leishmania infantum promastigotes; parameters: method as in PMID 24853758; details: ref [20], read-out: L. infantum EC50; cited from earlier work
LiTryS = system: LiTryS; parameters: method as in PMID 24853758; details: ref [20]; cited from earlier work
[8] = molecular target: T. cruzi trypanothione synthetase (TcTryS) (Trypanosoma cruzi, UniProt Q9GT49); details: read-out: apparent Ki ADP, TcTryS strain Tulahuen 0 (His-tagged); end-point BIOMOL GREEN assay; competes with ATP
T. cruzi trypanothione synthetase (TcTryS), sequence (Q9GT49 whole entry): as the sequence (Q9GT49 whole entry) above

[9] = molecular target: L. infantum trypanothione synthetase (LiTryS) (Leishmania infantum, UniProt A4I2Z3); assay: biochemical; format: biochemical; details: end-point BIOMOL GREEN assay; competes with ATP; read-out: apparent Ki ADP, LiTryS JPCM5 (His-tagged)
L. infantum trypanothione synthetase (LiTryS), sequence (A4I2Z3 entry or part of it): as the sequence (A4I2Z3 1-652) above

[10] = molecular target: T. b. brucei trypanothione synthetase (TbTryS) (Trypanosoma brucei brucei, UniProt Q8IEX1); assay: biochemical; details: end-point BIOMOL GREEN assay; competes with ATP; read-out: apparent Ki ADP, His-tagged TbTryS 427 (MITat1.4)
T. b. brucei trypanothione synthetase (TbTryS), sequence (Q8IEX1 entry or part of it): as the sequence (Q8IEX1 1-627) above

CfGspS = details: ref [64]; cited from earlier work
[11] = n = 4, read-out: LiTryS IC50, representative dose-response plot

Structure (SMILES)	inhibition at 30 µM [1] [%]	EC50 ([2]; Leishmania infantum) [µM]	EC50 [2] [µM]	EC50 [3] [µM]	decrease of T(SH)2 content [4] [%]	IC50 (TryS from C. fasciculata) [µM]	IC50 [5]	inhibition at 30 µM ([5]; read-out: % TbTryS inhibition ± 2σn-1) [%]	slope plot, LiTryS, representative dose-response plot [6]	IC50 [6, 11] [µM]	IC50 ([6]; read-out: LiTryS IC50) [µM]	EC50 [7] [µM]	IC50 (LiTryS) [µM]	inhibition at 75 µM [5] [%]	Ki [8] [µM]	Ki [9] [µM]	Ki [10] [µM]	Ki (CfGspS) [µM]
CNCCNC(=O)CN1C(=O)Cc2c([nH]c3ccc(Br)cc23)-c2ccc(Cl)cc21 [MOL2008]	~50	12	12.6 ± 1.6	4.3 ± 0.7	≥ 90	0.03	30 µM and ~30 µM and ≤ 30 µM	~50	0.38 ± 0.03	0.14 ± 0.03	< 1	–	–	–	–	–	–	–
CNCCNC(=O)CN1C(=O)Cc2c([nH]c3cc(C(F)(F)F)ccc23)-c2ccccc21 [FS-554]	~50	–	–	–	–	–	~75 µM	–	0.37 ± 0.03	0.32 ± 0.73	0.35	112.3 ± 1.1	0.35	~50	–	–	–	–
Nc1ncnc2c1ncn2[C@@H]1O[C@H](COP(=O)(O)OP(=O)(O)O)[C@@H](O)[C@H]1O [ADP]	–	–	–	–	–	–	–	–	–	–	–	–	–	–	60 ± 6	90 ± 8	40 ± 5	80
